In article PMC3475717, “A Spiroligomer α-Helix Mimic That Binds HDM2, Penetrates Human Cells and Stabilizes HDM2 in Cell Culture” (PLoS ONE, 2012):
“Also recorded” adds a separate entry of the source.

Key:
[1] = tested on: HepG2 cells; assay: cell penetration, fluorescence and confocal microscopy; active vs. passive transport; assay type: cell-based, human; conditions: HepG2, 37°C, 5 µM, 3.75 hours
Method: (§1) Cell Culture and Treatment. HepG2 (expressing wild-type p53) and Huh7 (expressing mutant p53) cell lines were purchased from the American Type Culture Collection (ATCC) and cultured as monolayers in Dulbecco’s modified Eagle’s medium (DMEM) (Invitrogen) supplemented with 100 mM nonessential amino acid solution, 100 mM sodium pyruvate, 100 U/mL penicillin, 100 μg/mL streptomycin, and 10% heat inactivated fetal bovine serum (FBS) (all from Hyclone).
(§2) Cells were maintained at 37° C and 5% CO2 and were treated with media that contained 0.5%
(§3) FBS. Nutlin-3 (Sigma) was dissolved in 0.01% DMSO (Sigma). This concentration of DMSO did not affect the cell phenotype. Both nutlin-3 and spiroligomers were added into the medium for final concentrations of 2 µM, 5 µM, 10 µM and 20 µM for 24 hours. For the western blot experiments detailed below, the time length for incubation with bis-peptide was 17 hours.
(§4) Fluorescence and Confocal Microscopy. Fluorescence and confocal microscopy were applied to live and fixed cells. Cells were grown on glass chambers and fixed with ice-cold 95:5 ethanol/acetic acid for 10 minutes at -20 °C. Sections were washed with PBS and mounted in Vectashield aqueous mounting medium with DAPI (Vector laboratories). Fluorescent specimens were analyzed using an ECLIPSE Ti microscope (Nikon), lenses with hardened […]
(1 picture or pasted object on this page, not shown here) […]
filters (Nikon), and a Nikon DS-Fi1 camera, which was operated by NIS Elements computer software (Nikon). Confocal microscopy was performed with a Leica SP-1 microscope, with illumination at 488 nm and spectral detection. […]
Mathematical model described8 and MxPro software (Stratagene) were used to process PCR data. End-point PCR reactions were assayed with PCR Master Mix (Promega). Samples were amplified in 34 cycles; each cycle consisted of 30 sec of denaturation at 95 °C, 30 sec of annealing at 60 °C, and 30 sec of elongation at 72 °C. After 34 cycles, samples were subjected to final elongation for 5 minutes at 72 °C. […]
fluorescence in the images.

[2] = tested on: Huh7 cells; assay: cell penetration, fluorescence and confocal microscopy; assay type: cell-based, human; conditions: Huh7, 37°C
Method: Table S.7. Parameters used for the non-linear fit for the plot of the competition binding experiment.
as §1, §2, §3
as §4, with “Sections were washed with PBS and mounted in Vectashield aqueous mounting medium with DAPI (Vector laboratories).” left out
Western Blotting. […] Images were quantified using ImageJ software (NIH). […]

uptake of fluorescence (control) [2]: no visible uptake of fluorescence
SMILES: O=C1OC2(c3ccc(O)cc3Oc3cc(O)ccc32)c2ccccc21 [fluorescein, reference compound]
uptake of fluorescence (control) [1]: no visible uptake of fluorescence; also recorded: failed to produce any fluorescence
